Data from ChEMBL document CHEMBL4325853, “Design, synthesis and antibacterial evaluation of 2,4-disubstituted-6-thiophenyl-pyrimidines” (Eur J Med Chem, 2019).
The source made the active and inactive calls. The rule behind the calls is not given here.

Tests used:
Staphylococcus aureus [1] = assay: Ratio of MIC for Staphylococcus aureus ATCC 29213 after and before 5 serial passages; type: functional
Staphylococcus aureus [2] = assay: Ratio of MIC for Staphylococcus aureus ATCC 29213 after and before 5 to 21 serial passages; type: functional
[3] = molecular target: T1, Cell division protein FtsZ (Staphylococcus aureus) (UniProt P0A031); assay: Inhibition of recombinant Staphylococcus aureus FtsZ polymerization by 90 degree light scattering-based fluorescence spectrometric analysis
T1 sequence (whole entry): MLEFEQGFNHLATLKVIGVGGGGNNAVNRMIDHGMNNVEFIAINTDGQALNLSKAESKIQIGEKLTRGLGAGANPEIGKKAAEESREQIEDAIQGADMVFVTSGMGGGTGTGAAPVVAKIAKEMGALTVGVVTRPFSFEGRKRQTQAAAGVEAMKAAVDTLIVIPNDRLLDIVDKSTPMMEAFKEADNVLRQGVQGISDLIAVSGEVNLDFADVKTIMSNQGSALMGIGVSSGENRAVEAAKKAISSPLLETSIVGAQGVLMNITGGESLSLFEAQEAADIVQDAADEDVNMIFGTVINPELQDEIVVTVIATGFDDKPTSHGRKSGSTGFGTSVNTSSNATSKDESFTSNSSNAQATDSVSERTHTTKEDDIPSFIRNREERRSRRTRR

[4] = molecular target: T1, Cell division protein FtsZ (Staphylococcus aureus); assay: Inhibition of recombinant Staphylococcus aureus FtsZ polymerization assessed as reduction in size of protein polymers at 4 ug/ml preincubated for 10 mins followed by GTP addition and measured after 15 mins by transmission electron microscopic method
[5] = molecular target: T1, Cell division protein FtsZ (Staphylococcus aureus); assay: Inhibition of recombinant Staphylococcus aureus FtsZ polymerization assessed as reduction in bundling of protein protofilaments at 4 ug/ml preincubated for 10 mins followed by GTP addition and measured after 15 mins by transmission electron microscopic method
[6] = molecular target: T1, Cell division protein FtsZ (Staphylococcus aureus); assay: Inhibition of recombinant Staphylococcus aureus FtsZ GTPase activity assessed as reduction in inorganic phosphate formation at 2 ug/ml after 30 mins by colorimetric method relative to control
[7] = molecular target: T1, Cell division protein FtsZ (Staphylococcus aureus); assay: Inhibition of recombinant Staphylococcus aureus FtsZ GTPase activity assessed as reduction in inorganic phosphate formation at 16 ug/ml after 30 mins by colorimetric method relative to control
Bacillus subtilis = assay: Induction of morphological changes in Bacillus subtilis 168 assessed as cell length at 2 ug/ml after 4.5 hrs by phase contrast microscopic analysis (reference value: 5 to 10 micrometer); type: functional, subsp. subtilis str. 168
Staphylococcus aureus [8] = assay: Antibacterial activity against Staphylococcus aureus ATCC 29213 after 10 passages by broth microdilution method; type: functional, organism-based
Staphylococcus aureus [9] = assay: Ratio of MIC for Staphylococcus aureus ATCC 29213 after and before 11 to 21 serial passages; type: functional
[10] = Hemolytic activity against human erythrocytes measured after 1 hr; type: ADME, cell-based, Erythrocyte
[11] = Selectivity index, ratio of HC50 for human erythrocytes to MIC for methicillin-resistant Staphylococcus aureus ATCC BAA41; type: toxicity; details: read-out: Selectivity Index
[12] = Selectivity index, ratio of HC50 for human erythrocytes to MIC for methicillin-resistant Staphylococcus aureus ATCC BAA1720; type: toxicity; details: read-out: Selectivity Index
[13] = Selectivity index, ratio of HC50 for human erythrocytes to MIC for methicillin-resistant Staphylococcus aureus ATCC 33592; type: toxicity; details: read-out: Selectivity Index

Row | Compound | Ratio (Staphylococcus aureus [1]) | Ratio (Staphylococcus aureus [2]) | inhibition [3] | inhibition [4] | inhibition [5] | inhibition [6] [%] | inhibition [7] [%] | Activity (Bacillus subtilis) [um] | Activity (Staphylococcus aureus [8]) | Ratio (Staphylococcus aureus [9]) | HC50 at 1 h [10] [µg/mL] | selectivity ratio [11] | selectivity ratio [12] | selectivity ratio [13] | Activity (Staphylococcus aureus [9])
1 | COc1cccc(OC)c1C(=O)N[C@@H]1C(=O)N2[C@@H]1SC(C)(C)[C@@H]2C(=O)O [METHICILLIN] | 4 | 32 | – | – | – | – | – | – | – | – | – | – | – | – | –
2 | CC(C)c1ccc(CN2CCCN(CCc3cc(-c4cccs4)nc(-c4ccncc4)n3)CC2)cc1 | – | – | Dose-dependent effect | Active | Active | 25 | 70 | >20 | Active | 1 | > 64 | > 32 | > 32 | > 32 | –
3 | CC(C)(C)c1ccc(CN2CCCN(CCc3cc(-c4cccs4)nc(-c4ccncc4)n3)CC2)cc1 | – | – | – | – | – | – | – | – | Active | – | > 64 | > 32 | > 32 | > 32 | Active
